Assay results from patent publication US11773085B2 (Foghorn Therapeutics Inc., priority 2018, dated 2023).

Columns and labels:
[1] = target: Nanoluciferase-BRD9 fusion protein (3×FLAG-NLuc-BRD9) (Homo sapiens (Human), UniProt Q9H8M2); assay: SYO1 BRD9 NanoLuc degradation assay; format: cell-based; conditions: SYO-1 cells expressing 3×FLAG-NLuc-BRD9, 6 hours, 1 μM top dose; read-out: SYO1 BRD9-NanoLuc degradation IC50
Experimental: A stable SYO-1 cell line expressing 3×FLAG-NLuc-BRD9 was generated. On day 0 cells were seeded in 30 μL media into each well of 384-well cell culture plates. The seeding density was 8000 cells/well. […] Subsequently plates were incubated for 6 hours in a standard tissue culture incubator and equilibrated at room temperature for 15 minutes. Nanoluciferase activity was measured by adding 15 μL of freshly prepared Nano-Glo Luciferase Assay Reagent (Promega N1130), shaking the plates for 10 minutes and reading the bioluminescence using an EnVision reader.
The Inhibition % was calculated using the following formula: % Inhibition=100×(LumHC−LumSample)/(LumHC−LumLC). DMSO treated cells are employed as High Control (HC) and 1 μM of a known BRD9 degrader standard treated cells are employed as Low Control (LC).

[2] = target: BRD9 bromodomain (Homo sapiens (Human), UniProt Q9H8M2); assay: BRD9 bromodomain TR-FRET competition binding assay; conditions: 3 nM Flag-BRD9, 3.75 nM biotinylated ligand, 90 minutes at room temperature
Experimental: Cleaved His tag was removed by purification.
A mixture of biotinylated-ligand and SureLight™ Allophycocyanin-Streptavidin (APC-SA, PerkinElmer AD0201) in 50 mM HEPES (pH 7.4), 50 mM NaCl, 1 mM TCEP (pH 7), 0.01% (v/v) Tween-20, 0.01% (w/v) bovine serum albumin was added to a white 384-well PerkinElmer Proxiplate Plus plate. DMSO or 3-fold serially diluted compounds were then added to the Proxiplate followed by addition of Flag-BRD9. After a 10 minute incubation at room temperature, Eu-W1024 anti-FLAG (PerkinElmer, AD0273) was added.

DC50 [1] | IC50 [2] | Structure (SMILES)
> 1000 nM | – | COc1cc(-c2cn(C)c(=O)c3cnccc23)cc(OC)c1CN(C)CCc1cccc2c1C(=O)N(C1CCC(=O)NC1=O)C2=O (centres unmarked) [Compound D17, 4-[2-([[2,6-dimethoxy-4-(2-methyl-1-oxo-2,7-naphthyridin-4-yl)phenyl]methyl](methyl)amino)ethyl]-2-(2,6-dioxopiperidin-3-yl)isoindole-1,3-dione]
< 10 nM | < 10 nM | COc1cc(-c2cn(C)c(=O)c3cnccc23)cc(OC)c1CN(C)CC(=O)NCCCCCCCCCC(=O)N[C@H](C(=O)N1C[C@H](O)C[C@H]1C(=O)NCc1ccc(-c2scnc2C)cc1)C(C)(C)C (stereo in doubt) [Compound D18, (2S,4R)-1-[(2S)-2-[10-[2-([[2,6-dimethoxy-4-(2-methyl-1-oxo-2,7-naphthyridin-4-yl)phenyl]methyl](methyl)amino)acetamido]decanamido]-3,3-dimethylbutanoyl]-4-hydroxy-N-[[4-(4-methyl-1,3-thiazol-5-yl)phenyl]methyl]pyrrolidine-2-carboxamide]
10 to 100 nM | 10 to 100 nM | COc1cc(-c2cn(C)c(=O)c3cnccc23)cc(OC)c1CN(C)CC(=O)N(C)CCCCCNc1cccc2c1C(=O)N(C1CCC(=O)NC1=O)C2=O (centres unmarked) [Compound D7, 2-([[2,6-dimethoxy-4-(2-methyl-1-oxo-1,2-dihydro-2,7-naphthyridin-4-yl)phenyl]methyl](methyl)amino)-N-(5-[[2-(2,6-dioxopiperidin-3-yl)-1,3-dioxo-2,3-dihydro-1H-isoindol-4-yl]amino]pentyl)-N-methylacetamide formic acid]
< 10 nM | < 10 nM | COc1cc(-c2cn(C)c(=O)c3cnccc23)cc(OC)c1CN(C)C(=O)CCCOc1cccc2c1C(=O)N(C1CCC(=O)NC1=O)C2=O (centres unmarked) [Compound D11, N-[[2,6-dimethoxy-4-(2-methyl-1-oxo-1,2-dihydro-2,7-naphthyridin-4-yl)phenyl]methyl]-4-[[2-(2,6-dioxopiperidin-3-yl)-1,3-dioxo-2,3-dihydro-1H-isoindol-4-yl]oxy]-N-methylbutanamide]
< 10 nM | 10 to 100 nM | COc1cc(NCC(=O)NCCCCCCCCNc2cccc3c2C(=O)N(C2CCC(=O)NC2=O)C3=O)cc(-c2cn(C)c(=O)c3cnccc23)c1 (centres unmarked) [Compound D8, N-(8-[[2-(2,6-dioxopiperidin-3-yl)-1,3-dioxo-2,3-dihydro-1H-isoindol-4-yl]amino]octyl)-2-[[3-methoxy-5-(2-methyl-1-oxo-1,2-dihydro-2,7-naphthyridin-4-yl)phenyl]amino]acetamide formic acid]
< 10 nM | 10 to 100 nM | COc1cc(-c2cn(C)c(=O)c3cnccc23)cc(OCC(=O)NCCCCCCCCNc2cccc3c2C(=O)N(C2CCC(=O)NC2=O)C3=O)c1CN(C)C (centres unmarked) [Compound D9, 2-(2-((dimethylamino)methyl)-3-methoxy-5-(2-methyl-1-oxo-1,2-dihydro-2,7-naphthyridin-4-yl)phenoxy)-N-(8-((2-(2,6-dioxopiperidin-3-yl)-1,3-dioxoisoindolin-4-yl)amino)octyl)acetamide]
< 10 nM | < 10 nM | COc1cc(-c2cn(C)c(=O)c3cnccc23)cc(OC)c1CN(C)CC(=O)NCCCCCCCCNC(=O)COc1cccc2c1C(=O)N(C1CCC(=O)NC1=O)C2=O (centres unmarked) [Compound D5, N-[8-[2-([[2,6-dimethoxy-4-(2-methyl-1-oxo-1,2-dihydro-2,7-naphthyridin-4-yl)phenyl]methyl](methyl)amino)acetamido]octyl]-2-[[2-(2,6-dioxopiperidin-3-yl)-1,3-dioxo-2,3-dihydro-1H-isoindol-4-yl]oxy]acetamide]
100 to 1000 nM | 10 to 100 nM | COc1cc(-c2cn(C)c(=O)c3cnccc23)cc(OC)c1CN(C)CCN(C)CCOCCOc1cccc2c1C(=O)N(C1CCC(=O)NC1=O)C2=O (centres unmarked) [Compound D1, 4-[2-(2-[[2-([[2,6-dimethoxy-4-(2-methyl-1-oxo-2,7-naphthyridin-4-yl)phenyl]methyl](methyl)amino)ethyl](methyl)amino]ethoxy)ethoxy]-2-(2,6-dioxopiperidin-3-yl)isoindole-1,3-dione; formic acid]
< 10 nM | 10 to 100 nM | COc1cc(-c2cn(C)c(=O)c3cnccc23)cc(OCC(=O)NCCCCCCCCNc2cccc3c2C(=O)N(C2CCC(=O)NC2=O)C3=O)c1OC (centres unmarked) [Compound D10, 2-(2,3-dimethoxy-5-(2-methyl-1-oxo-1,2-dihydro-2,7-naphthyridin-4-yl)phenoxy)-N-(8-((2-(2,6-dioxopiperidin-3-yl)-1,3-dioxoisoindolin-4-yl)amino)octyl)acetamide]
10 to 100 nM | 10 to 100 nM | COc1cc(-c2cn(C)c(=O)c3cnccc23)cc(OC)c1CN(C)CC(=O)N(C)CCOCCOCCNc1cccc2c1C(=O)N(C1CCC(=O)NC1=O)C2=O (centres unmarked) [Compound D13, 2-((2,6-dimethoxy-4-(2-methyl-1-oxo-1,2-dihydro-2,7-naphthyridin-4-yl)benzyl)(methyl)amino)-N-(2-(2-(2-((2-(2,6-dioxopiperidin-3-yl)-1,3-dioxoisoindolin-4-yl)amino)ethoxy)ethoxy)ethyl)-N-methylacetamide]
< 10 nM | – | COc1cc(-c2cn(C)c(=O)c3cnccc23)cc(OC)c1CN(C)C(=O)CCCCCOc1cccc2c1C(=O)N(C1CCC(=O)NC1=O)C2=O (centres unmarked) [Compound D4, N-[[2,6-dimethoxy-4-(2-methyl-1-oxo-1,2-dihydro-2,7-naphthyridin-4-yl)phenyl]methyl]-6-[[2-(2,6-dioxopiperidin-3-yl)-1,3-dioxo-2,3-dihydro-1H-isoindol-4-yl]oxy]-N-methylhexanamide]
– | 10 to 100 nM | COc1cc(-c2cn(C3CC3)c(=O)c3cnccc23)cc(OC)c1CN(C)C [Compound B22, 2-cyclopropyl-4-[4-[(dimethylamino)methyl]-3,5-dimethoxyphenyl]-2,7-naphthyridin-1-one]
– | 100 to 1000 nM | CC(=O)c1cc(-c2cccc3nccn23)c2cc(N3CCOCC3)ccn12 [Compound B16, 1-(1-[imidazo[1,2-a]pyridin-5-yl]-7-(morpholin-4-yl)indolizin-3-yl)ethan-1-one]
– | 100 to 1000 nM | COc1cc(-c2cc(C)c(=O)n(C)c2)cc(OC)c1CN1CC(C(=O)O)C1 [Compound B48, 1-[[4-(1,5-dimethyl-6-oxopyridin-3-yl)-2,6-dimethoxyphenyl]methyl]azetidine-3-carboxylic acid]
– | > 1000 nM | CCC(=O)Nc1c(C)c(-c2cc(OC)c(CN(C)C)c(OC)c2)cn(C)c1=O [Compound B31, N-(5-[4-[(dimethylamino)methyl]-3,5-dimethoxyphenyl]-1,4-dimethyl-2-oxo-1,2-dihydropyridin-3-yl)propanamide]
– | > 1000 nM | Cn1cc(C(=O)NCc2ccccc2)c2cn[nH]c2c1=O [Compound B5]
– | < 10 nM | CNC(=O)C1CN(Cc2c(OC)cc(-c3cn(C)c(=O)c4cnccc34)cc2OC)C1 [Compound B34, 1-[[2,6-dimethoxy-4-(2-methyl-1-oxo-1,2-dihydro-2,7-naphthyridin-4-yl)phenyl]methyl]-N-methylazetidine-3-carboxamide formic acid]
– | < 10 nM | COc1cc(-c2cn(C)c(=O)c3cnccc23)cc(OC)c1CN(C)S(=O)(=O)CC(C)C [Compound B40, N-[[2,6-dimethoxy-4-(2-methyl-1-oxo-2,7-naphthyridin-4-yl)phenyl]methyl]-N,2-dimethylpropane-1-sulfonamide]
– | 100 to 1000 nM | CN(C)Cc1ccc(-c2cn(C)c(=O)c3cnccc23)cc1S(C)(=O)=O [Compound B37, 4-[4-[(dimethylamino)methyl]-3-methanesulfonylphenyl]-2-methyl-2,7-naphthyridin-1-one]
– | > 1000 nM | COc1cc(-c2cc(NC(=O)N(C)C)c3nnc(C)n3c2)cc(OC)c1CN(C)C [Compound B57, 1-(6-[4-[(dimethylamino)methyl]-3,5-dimethoxyphenyl]-3-methyl-[1,2,4]triazolo[4,3-a]pyridin-8-yl)-3,3-dimethylurea]
– | 10 to 100 nM | CNC(=O)[C@@H]1CCN1Cc1c(OC)cc(-c2cn(C)c(=O)c3cnccc23)cc1OC [Compound B56, (2S)-1-[[2,6-dimethoxy-4-(2-methyl-1-oxo-2,7-naphthyridin-4-yl)phenyl]methyl]-N-methylazetidine-2-carboxamide]
– | 10 to 100 nM | C/C=C/Cn1cc(-c2ccc(CNC)c(C#N)c2)c2cc(C)[nH]c2c1=O [Compound B15]
– | > 1000 nM | Cn1cc(C(=O)NCc2cccc3ccccc23)c2cn[nH]c2c1=O [Compound B4]
– | > 1000 nM | O=C(NCc1ccccc1)c1cn(CC2CC2)c(=O)c2[nH]ncc12 [Compound B13]
– | > 1000 nM | CCNC(=O)c1cn(C)c(=O)c2[nH]ncc12 [Compound B6]
– | > 1000 nM | CCn1cc(C(=O)NCc2ccccc2)c2cn[nH]c2c1=O [Compound B9]
